Test results published in patent publication US12180215B2, “Substituted pyrrolo[3,4-d]imidazoles as JAK inhibitors” (HENAN MEDINNO PHARMACEUTICAL TECHNOLOGY CO., LTD., priority 2019, dated 2024).

Experiments:
JAK2 = JAK2 (Homo sapiens, UniProt O60674); assay: JAK2 kinase ADP-Glo assay (Example 60)
JAK1 = JAK1 (Homo sapiens, UniProt P23458); assay: JAK1 kinase ADP-Glo assay (Example 60)
TYK2 = target: T1, TYK2 (Homo sapiens, UniProt P29597); assay: TYK2 kinase ADP-Glo assay (Example 60)
T1 sequence (P29597 871-1187 limits assumed): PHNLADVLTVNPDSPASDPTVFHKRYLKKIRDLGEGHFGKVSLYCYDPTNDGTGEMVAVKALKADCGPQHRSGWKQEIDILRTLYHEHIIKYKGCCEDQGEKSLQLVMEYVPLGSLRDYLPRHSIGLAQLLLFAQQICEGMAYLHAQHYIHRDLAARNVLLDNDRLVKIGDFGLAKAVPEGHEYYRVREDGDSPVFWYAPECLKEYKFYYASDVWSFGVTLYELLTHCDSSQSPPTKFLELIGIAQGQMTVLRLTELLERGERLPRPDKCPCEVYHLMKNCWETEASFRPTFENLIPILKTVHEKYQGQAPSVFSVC

JAK3 = JAK3 (Homo sapiens, UniProt P52333); assay: JAK3 kinase ADP-Glo assay (Example 60)
Sequence of JAK3 (P52333 795-1124 limits assumed): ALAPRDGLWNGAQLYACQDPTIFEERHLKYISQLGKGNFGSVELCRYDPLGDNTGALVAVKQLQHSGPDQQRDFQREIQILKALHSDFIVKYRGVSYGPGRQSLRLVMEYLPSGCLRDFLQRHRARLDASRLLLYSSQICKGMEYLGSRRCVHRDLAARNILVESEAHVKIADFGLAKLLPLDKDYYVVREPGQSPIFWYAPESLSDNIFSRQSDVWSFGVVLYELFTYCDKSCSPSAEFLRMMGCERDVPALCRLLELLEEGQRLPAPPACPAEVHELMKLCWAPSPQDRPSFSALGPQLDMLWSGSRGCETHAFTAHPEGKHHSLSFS

Sequence of JAK2 (O60674 826-1132 limits assumed): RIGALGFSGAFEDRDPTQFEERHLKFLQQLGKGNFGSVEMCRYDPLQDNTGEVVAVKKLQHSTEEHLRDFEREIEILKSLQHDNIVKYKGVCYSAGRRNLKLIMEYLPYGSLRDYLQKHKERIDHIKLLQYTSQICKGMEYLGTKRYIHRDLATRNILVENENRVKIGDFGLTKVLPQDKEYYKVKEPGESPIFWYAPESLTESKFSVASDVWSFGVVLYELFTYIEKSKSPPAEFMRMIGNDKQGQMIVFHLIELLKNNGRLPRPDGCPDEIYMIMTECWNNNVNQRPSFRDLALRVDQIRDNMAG
Sequence of JAK1 (P23458 850-1154 limits assumed): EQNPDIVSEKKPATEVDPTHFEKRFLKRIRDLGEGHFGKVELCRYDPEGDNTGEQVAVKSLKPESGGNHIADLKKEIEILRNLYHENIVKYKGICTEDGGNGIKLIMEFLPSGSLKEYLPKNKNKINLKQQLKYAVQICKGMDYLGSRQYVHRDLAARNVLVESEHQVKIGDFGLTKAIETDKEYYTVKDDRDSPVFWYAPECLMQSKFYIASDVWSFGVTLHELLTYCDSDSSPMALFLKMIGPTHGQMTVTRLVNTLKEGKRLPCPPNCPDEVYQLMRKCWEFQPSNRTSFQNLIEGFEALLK

SMILES	IC50 (JAK2) [nM]	IC50 (JAK1) [nM]	IC50 (TYK2) [nM]	IC50 (JAK3) [nM]
CCc1cc(O)c(F)cc1-c1ccc2c(-c3nc4c([nH]3)CN(C(=O)N3CCCCC3)C4)n[nH]c2c1 [MDI-233, (2-(6-(2-ethyl-5-fluoro-4-hydroxyphenyl)-1H-indazol-3-yl)-4,6-dihydropyrrolo[3,4-d]imidazol-5-(1H)-yl)(piperidin-1-yl)ketone]	1.33	1.31	3.5	2.6
CCc1cc(O)c(F)cc1-c1ccc2c(-c3nc4c([nH]3)CN(C(=O)N3CCOCC3)C4)n[nH]c2c1 [MDI-234, (2-(6-(2-ethyl-5-fluoro-4-hydroxyphenyl)-1H-indazol-3-yl)-4,6-dihydropyrrolo[3,4-d]imidazol-5-(1H)-yl)(morpholino)ketone]	0.737	0.206	0.438	0.375
CCc1cc(O)c(F)cc1-c1ccc2c(-c3nc4c([nH]3)CN(C(=O)N3CCN(C)CC3)C4)n[nH]c2c1 [MDI-235, (2-(6-(2-ethyl-5-fluoro-4-hydroxyphenyl)-1H-indazol-3-yl)-4,6-dihydropyrrolo[3,4-d]imidazol-5-(1H)-yl)(4-methylpiperazin-1-yl)ketone]	0.166	0.0395	0.142	0.183
CCc1cc(O)c(F)cc1-c1ccc2c(-c3nc4c([nH]3)CN(C(=O)N3CCN(CC)CC3)C4)n[nH]c2c1 [MDI-236, (2-(6-(2-ethyl-5-fluoro-4-hydroxyphenyl)-1H-indazol-3-yl)-4,6-dihydropyrrolo[3,4-d]imidazol-5-(1H)-yl)(4-ethylpiperazin-1-yl)ketone]	0.329	0.0403	0.0954	0.141
CCc1cc(O)c(F)cc1-c1cnc2c(-c3nc4c([nH]3)CN(C(=O)C3CC3)C4)n[nH]c2c1 [MDI-237, cyclopropyl (2-(6-(2-ethyl-5-fluoro-4-hydroxyphenyl)-1H-pyrazolo[4,3-b]pyridine-3-yl)-4,6-dihydropyrrolo[3,4-d]imidazol-5(1H)-yl)ketone]	0.588	0.758	9.68	1.39
CCc1cc(O)c(F)cc1-c1cc(C)c2c(-c3nc4c([nH]3)CN(C(=O)C3CC3)C4)n[nH]c2c1 [MDI-239, cyclopropyl (2-(6-(2-ethyl-5-fluoro-4-hydroxyphenyl)-4-methyl-1H-indazol-3-yl)-4,6-dihydropyrrolo[3,4-d]imidazol-5(1H)-yl)ketone]	1.2	1.15	19.2	4.94
CCc1cc(O)c(F)cc1-c1cc(C)c2c(-c3nc4c([nH]3)CN(C(=O)N3CC[C@H](O)C3)C4)n[nH]c2c1 [MDI-240, (S)-(2-(6-(2-ethyl-5-fluoro-4-hydroxyphenyl)-4-methyl-1H-indazol-3-yl)-4,6-dihydropyrrolo[3,4-d]imidazol-5(1H)-yl)(3-hydroxylpyrrolidin-1-yl)ketone]	0.842	0.45	5.34	2.02
CCc1cc(O)c(F)cc1-c1cc2[nH]nc(-c3nc4c([nH]3)CN(C(=O)C3CC3)C4)c2cn1 [MDI-242, cyclopropyl(2-(6-(2-ethyl-5-fluoro-4-hydroxyphenyl)-1H-pyrazolo[4,3-c]pyridine-3-yl)-4,6-dihydropyrrolo[3,4-d]imidazol-5(1H)-yl)ketone]	28.6	67.2	583	152
CCc1cc(O)c(F)cc1-c1ccc2c(-c3nc4c([nH]3)CN(C(=O)N3CC[C@@H](O)C3)C4)n[nH]c2c1 [MDI-243, (R)-(2-(6-(2-ethyl-5-fluoro-4-hydroxyphenyl)-1H-indazol-3-yl)-4,6-dihydropyrrolo[3,4-d]imidazol-5(1H)-yl)(3-hydroxylpyrrolidin-1-yl)ketone]	0.499	0.118	0.167	0.269
CCc1cc(O)c(F)cc1-c1ccc2c(-c3nc4c([nH]3)CN(C(=O)N3CC(O)C3)C4)n[nH]c2c1 [MDI-244, (2-(6-(2-ethyl-5-fluoro-4-hydroxyphenyl)-1H-indazol-3-yl)-4,6-dihydropyrrolo[3,4-d]imidazol-5(1H)-yl)(3-hydroxylazetidin-1-yl)ketone]	0.915	0.248	1.31	0.55
CCc1cc(O)c(F)cc1-c1ccc2c(-c3nc4c([nH]3)CN(C(=O)N3CCC(O)CC3)C4)n[nH]c2c1 [MDI-245, (2-(6-(2-ethyl-5-fluoro-4-hydroxyphenyl)-1H-indazol-3-yl)-4,6-dihydropyrrolo[3,4-d]imidazol-5(1H)-yl)(4-hydroxylpiperidin-1-yl)ketone]	0.648	0.178	0.365	0.306
CCc1cc(O)c(F)cc1-c1ccc2c(-c3nc4c([nH]3)CN(C(=O)NC)C4)n[nH]c2c1 [MDI-246, 2-(6-(2-ethyl-5-fluoro-4-hydroxyphenyl)-1H-indazol-3-yl)-N-methyl-4,6-dihydropyrrolo[3,4-d]imidazol-5-(1H)-carboxamide]	0.973	0.241	1.52	0.709
CCNC(=O)N1Cc2nc(-c3n[nH]c4cc(-c5cc(F)c(O)cc5CC)ccc34)[nH]c2C1 [MDI-247, 2-(6-(2-ethyl-5-fluoro-4-hydroxyphenyl)-1H-indazol-3-yl)-N-ethyl-4,6-dihydropyrrolo[3,4-d]imidazol-5-(1H)-carboxamide]	1.88	0.557	2.35	1.3
CCc1cc(O)c(F)cc1-c1ccc2c(-c3nc4c([nH]3)CN(C(=O)NCCO)C4)n[nH]c2c1 [MDI-248, 2-(6-(2-ethyl-5-fluoro-4-hydroxyphenyl)-1H-indazol-3-yl)-N-(2-hydroxylethyl)-4,6-dihydropyrrolo[3,4-d]imidazol-5(1H)-carboxamide]	0.56	0.093	0.578	0.303
CCc1cc(O)c(F)cc1-c1ccc2c(-c3nc4c([nH]3)CN(C(=O)N3CC(C#N)C3)C4)n[nH]c2c1 [MDI-249, 1-(2-(6-(2-ethyl-5-fluoro-4-hydroxyphenyl)-1H-indazol-3-yl)-1,4,5,6-tetrahydropyrrolo[3,4-d]imidazol-5-carbonyl)Azetidin-3-nitrile]	0.697	0.307	1.93	0.398
CCc1cc(O)c(F)cc1-c1ccc2c(-c3nc4c([nH]3)CN(C(=O)N3CCC(C#N)C3)C4)n[nH]c2c1 (centres unmarked) [MDI-250, 1-(2-(6-(2-ethyl-5-fluoro-4-hydroxyphenyl)-1H-indazol-3-yl)-1,4,5,6-tetrahydropyrrolo[3,4-d]imidazol-5-carbonyl)pyrrolidin-3-nitrile]	0.974	0.395	0.993	0.497
CCc1cc(O)c(F)cc1-c1ccc2c(-c3nc4c([nH]3)CN(C(=O)NC3CCOC3)C4)n[nH]c2c1 (centres unmarked) [MDI-251, 2-(6-(2-ethyl-5-fluoro-4-hydroxyphenyl)-1H-indazol-3-yl)-N-(tetrahydrofuran-3-yl)-4,6-dihydropyrrolo[3,4-d]imidazol-5(1H)-carboxamide]	0.818	0.144	1.33	0.406
